Consider nine molecules from patent US7402310B2, “Deoxyribonuclease, gene encoding same and use thereof” (priority 2001, dated 2008).

Series [1] deals with T1, DLAD (Mus musculus, UniProt Q9QY48).
T1 construct: These plasmids encode the mature proteins of DLAD and DNase II, respectively, wherein Myc and His-tags are added to their C termini; made in house; host or cells: HeLa S3 cells (human), transient transfection, Ni-NTA purification
T1 sequence (Q9QY48 23-354): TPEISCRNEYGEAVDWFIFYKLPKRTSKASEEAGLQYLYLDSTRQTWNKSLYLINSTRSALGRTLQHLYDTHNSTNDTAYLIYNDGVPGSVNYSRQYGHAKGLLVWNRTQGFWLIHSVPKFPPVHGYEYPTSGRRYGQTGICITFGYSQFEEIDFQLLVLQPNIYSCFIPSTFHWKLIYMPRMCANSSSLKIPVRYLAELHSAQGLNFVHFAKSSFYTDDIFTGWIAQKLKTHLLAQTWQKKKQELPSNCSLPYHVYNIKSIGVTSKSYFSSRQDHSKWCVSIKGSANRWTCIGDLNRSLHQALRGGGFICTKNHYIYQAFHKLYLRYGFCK
As to the kind of experiment: Sensitivity of DLAD DNase activity against inhibitors. Format: biochemical. Particulars: standard conditions: pH 5.2, 45° C., 20 min, plasmid DNA substrate; read-out: IC50, inhibition of DLAD activity. How it is done:
In the same manner as in (2) of Example 3, HeLa S3 cells (5×10^6) were transfected with 25 μg of pcmDLAD-Myc-His or pcmDNaseII-Myc-His, individually. These plasmids encode the mature proteins of DLAD and DNase II, respectively, wherein Myc and His-tags are added to their C termini. After incubation of the cells for 48 hr, recombinant DLAD and recombinant DNase II were purified by IMAC using Ni-NTA spin column, in the same manner as in (2) of Example 3. The purified DLAD (or DNase II), which was eluted in 300 μl of elution buffer [50 mM sodium phosphate (pH 8.0) containing 250 mM imidazole and 300 mM NaCl], was dialyzed against 20 mM Mes-NaOH containing 1 mM 2-mercaptoethanol and used in the following assay for enzyme activities. The Sample obtained by treating HeLa S3 cells transfected with empty vector in the same manner was used as a control.
In the following experiments, the assay for DNase activity was performed as below, unless otherwise described. 20 μl of reaction mixture [50 mM Mes-NaOH (pH 5.2), 1 mM 2-mercaptoethanol, 1 unit of enzyme, 500 ng supercoiled or EcoR I-digested linear pBLUESCRIPT KS+ phagemid vector] was prepared on ice and incubated at 45° C. for 20 min. The reaction was terminated with phenol/chloroform and 5 μl aliquot of the reaction mixture was subjected to 1% agarose gel electrophoresis. After ethidium bromide staining, the image was scanned with CCD camera (Atto) under UV transillumination and optical density of the band corresponding to the full length substrate DNA was quantified by densitometry (NIH image 1.60). DNase activity was determined using reduction of the band intensity corresponding to the full length substrate DNA as an index. In the present invention, 1 unit of DLAD and DNase II activities are defined as their amounts required to decrease the band intensity corresponding to 200 ng of the full length substrate DNA under the above-mentioned reaction conditions.
DLAD activities were determined in the presence of various concentrations of DNase inhibitors [MgCl2 (FIG. 2A, ◯), MgSO4 (FIG. 2A, ●), aurintricarboxylic acid (FIG. 2B), G-actin (FIG. 2C), CoCl2 (FIG. 2D, ▪), NiCl2 (FIG. 2D, Δ) and ZnCl2 (FIG. 2D, ●)] under the above-mentioned standard conditions to analyze its sensitivity against the inhibitors. […] In contrast, it is known that there are little differences between these three divalent metal ions in inhibitory effect on DNase II [J. Biochem., 87: 1097-1103 (1980)].

Series [2] concerns the target T1, DLAD. In words: Divalent cation-dependency of DLAD activity (chelators). Particulars: 1 mM chelator; pH 5.2 and pH 7.2; supercoiled plasmid. The series is classed as biochemical. The protocol:
(§1) In the same manner as in (2) of Example 3, HeLa S3 cells (5×10^6) were transfected with 25 μg of pcmDLAD-Myc-His or pcmDNaseII-Myc-His, individually. These plasmids encode the mature proteins of DLAD and DNase II, respectively, wherein Myc and His-tags are added to their C termini. After incubation of the cells for 48 hr, recombinant DLAD and recombinant DNase II were purified by IMAC using Ni-NTA spin column, in the same manner as in (2) of Example 3. […]
(§2) In the following experiments, the assay for DNase activity was performed as below, unless otherwise described. […] After ethidium bromide staining, the image was scanned with CCD camera (Atto) under UV transillumination and optical density of the band corresponding to the full length substrate DNA was quantified by densitometry (NIH image 1.60). DNase activity was determined using reduction of the band intensity corresponding to the full length substrate DNA as an index. […]
Using a supercoiled plasmid as a substrate, DLAD activities in the presence and absence of a divalent cation chelator were determined under acidic (50 mM Mes-NaOH, pH 5.2) and neutral (50 mM Mops-NaOH, pH 7.2) conditions, respectively. […]

Series [3] is described as follows: Characterization of recombinant rat and human DLAD. The series is classed as biochemical. Particulars: recombinant protein from HeLa S3 cells. The text has this: Using the same strategy as in Example 1, a rat EST clone (GenBank AF178974) encoding the amino acid sequence with homology to the deduced amino acid sequence of human DNase II was identified. Oligonucleotide primers were synthesized based on the nucleotide sequence of this clone, followed by the RACE with liver poly A(+) RNA derived from Wister rat, which is connately pigment-deficient (albino), as a template to clone the full length rat DLAD cDNA. From the sequence analysis by a conventional method, it was deduced that this cDNA contains an ORF encoding 356 amino acids with a signal peptide consisting of 22 amino acids at the N terminus. […] An expression vector encoding rat DLAD with Myc and His-tags at the C terminus (prDLAD-Myc-His) was constructed by the same strategy as in (1) of Example 3. HeLa S3 cells were transfected with this vector to generate a recombinant rat DLAD.
(sequence complementary to the nucleotide sequence of the nucleotide Nos. 973 to 999 of the nucleotide sequence shown in Sequence Listing, SEQ ID NO: 4) were synthesized and, further using the above-mentioned linker primer AP1 together with these primers, RACE was performed with human liver-derived poly A(+) RNA as a template to clone the full length human DLAD cDNA. […]

The nature of series [4]: Stability in the medium for HeLa S3 cells.
Series [5] deals with supercoiled p[…]+ phagemid vector. In words: Mode of DNA hydrolysis (end labeling of degraded plasmid). Particulars: standard conditions. Format: biochemical. How it is done: Using a supercoiled pBLUESCRIPT KS+ phagemid vector as a substrate, enzyme reaction of DLAD or DNase II was performed under the above-mentioned standard conditions. After terminating the reaction, contaminants were removed by phenol/chloroform treatment to isolate degraded plasmid DNA. The 3′ ends were labeled in 50 μl of a reaction solution consisting of 20 units of terminal deoxynucleotidyl transferase (Toyobo), 0.83 mCi/ml […], 100 mM sodium cacodylate (pH 7.2), 0.2 mM DTT and 1 mM CoCl2. The 5′ ends were labeled in 50 μl of a reaction solution consisting of 20 units of polynucleotide kinase (Toyobo), 0.83 mCi/ml [γ-^32P]ATP, 50 mM Tris-HCl (pH 8.0), 10 mM MgCl2 and 10 mM 2-mercaptoethanol. The end-labeling treatments were performed as to both DNAs with and without pretreatment with 20 units of calf intestinal alkaline phosphatase (Takara) in the presence of 50 mM Tris-HCl (pH 8.0) and 1 mM MgCl2 to remove the phosphoryl groups in the ends of DNAs, respectively. Unincorporated nucleotides were removed by ethanol precipitation. The labeled DNA was subjected to 1% agarose gel electrophoresis, transferred onto nylon membrane and analyzed with BAS 1500 image analyzer (Fuji Film). […]

For another series, the system named is supercoiled plasmid. As to the kind of experiment: Active pH range and optimal pH of DNase activity. The series is classed as biochemical. Particulars: Mes-NaOH; pH 4.0 to 7.6 examined. The protocol:
as §1, §2
Using a supercoiled plasmid as a substrate, DLAD and DNase II activities were determined under the above-mentioned standard conditions except varying kinds of buffers and pH [i.e., acetate-NaOH (pH 4.0 and 4.4), Mes-NaOH (pH 4.8, 5.2, 5.6, 6.0 and 6.4) and Mops-NaOH (pH 6.4, 6.8, 7.2 and 7.6)]. […]

The term IC50 denotes the concentration at which inhibition is half-maximal. `[Cl-].[Cl-].[Mg+2]` [MgCl2]: at DLAD [1], the IC50 was 13 mM. Turning to `O=S(=O)([O-])[O-].[Mg+2]` [MgSO4], the IC50 on DLAD [1] stood at 7 mM. Regarding `O=C(O)CN(CCN(CC(=O)O)CC(=O)O)CC(=O)O` [EDTA], on DLAD [2], the “Effect of divalent cation chelator on DLAD activity” value is “no effect”.

For the molecule `O=C(O)C1=CC(=C(c2ccc(O)c(C(=O)O)c2)c2ccc(O)c(C(=O)O)c2)C=CC1=O` [Aurintricarboxylic acid], at DLAD [1], the IC50 turned out to be 0.006 mM. Take `O=C(O)CN(CCOCCOCCN(CC(=O)O)CC(=O)O)CC(=O)O` [EGTA]: at DLAD [2], the “Effect of divalent cation chelator on DLAD activity” value is recorded as “no effect”.

Take `[Cl-].[Cl-].[Zn+2]` [Zn^2+, ZnCl2]: the IC50 at DLAD [1] was found to be 0.2 mM.

B1: human DLAD: recombinant human DLAD, SEQ ID NO: 3, Myc and His-tags at the C terminus (protein, listed as Homo sapiens)
chain: MKQKMMARLLRTSFALLFLGLFGVLGAATISCRNEEGKAVDWFTFYKLPKRQNKESGETGLEYLYLDSTTRSWRKSEQLMNDTKSVLGRTLQQLYEAYASKSNNTAYLIYNDGVPKPVNYSRKYGHTKGLLLWNRVQGFWLIHSIPQFPPIPEEGYDYPPTGRRNGQSGICITFKYNQYEAIDSQLLVCNPNVYSCSIPATFHQELIHMPQLCTRASSSEIPGRLLTTLQSAQGQKFLHFAKSDSFLDGIFAAWMAQRLKTHLLTETWQRKRQELPSNCSLPYHVYNIKAIKLSRHSYFSSYQDHAKWCISQKGTKNRWTCIGDLNRSPHQAFRSGGFICTQNWQIYQAFQGLVLYYESCK
modifications: C-terminal Myc and His tags
As for B1, the “Properties: active pH range, divalent cation-dependency, mode of DNA cleavage, sensitivity to inhibitors” value in series [3] is “properties similar to mouse DLAD”.

B2: DLAD: novel acid DNase cleaving DNA independently from divalent cations; mouse, amino acid Nos. 1 to 332 of SEQ ID NO: 1 (protein, listed as Mus musculus)
chain: MTAKPLRTVLSLLFFALSGVLGTPEISCRNEYGEAVDWFIFYKLPKRTSKASEEAGLQYLYLDSTRQTWNKSLYLINSTRSALGRTLQHLYDTHNSTNDTAYLIYNDGVPGSVNYSRQYGHAKGLLVWNRTQGFWLIHSVPKFPPVHGYEYPTSGRRYGQTGICITFGYSQFEEIDFQLLVLQPNIYSCFIPSTFHWKLIYMPRMCANSSSLKIPVRYLAELHSAQGLNFVHFAKSSFYTDDIFTGWIAQKLKTHLLAQTWQKKKQELPSNCSLPYHVYNIKSIGVTSKSYFSSRQDHSKWCVSIKGSANRWTCIGDLNRSLHQALRGGGFI
Take B2: the “Stability in the medium” value in series [4] was “as stable as DNase II”. For the same molecule, in series [5], the “DNA cleavage mode (ends generated)” value is given as 3′-P/5′-OH ends. The “Optimal pH of DNase activity” value with supercoiled plasmid is reported as 5.2.

B3: rat DLAD: recombinant rat DLAD, ORF encoding 356 amino acids, Myc and His-tags at the C terminus (protein, UniProt Q9QZK9 23-356, looked up)
Deoxyribonuclease-2-beta: TPVISCINEDGKAVDWFAFYKLPRRTSRGGTGMGLDYLYLDSTMRTWSKSHHLINSSRSSLGRTLEQLYEAHNAKNDTAYLIYNDAVPASVNYSGNYGHAKGLLVWNRVQGFWLIHSIPKFPPVPEKGYEYPSSGRQYAQSGLCITLKYSQYETIDSQLLVFQPNIYSCFIPNIFRWELIHMPQMCAKSSASKIPSRRLTVLQSAQGLNFLHFAKSTFYTDDIFAAWIAQKLKVHLLVESWQRKNHELPSNCSLPYHVYNIKAIRGPLQSDFPSHHDHSKWCVSTKDSQARWTCIGDLNRSPHQALRSGGFICSKNRYIYQSFDRLVSHYASCN
modifications: C-terminal Myc and His tags
notes: recombinant rat DLAD, ORF encoding 356 amino acids, Myc and His-tags at the C terminus
With B3, the “Properties: active pH range, divalent cation-dependency, mode of DNA cleavage, sensitivity to inhibitors” value in series [3] is reported as “properties similar to mouse DLAD”.
